Experimental data reported in the RepoRT retention time repository.

Assay: RP, Waters ACQUITY Premier BEH C18, 100 × 2.1 mm, 1.7 µm, 40 °C, 0.3 to 0.4 mL/min, estimated dead time 0.73 min; A: water + 0.1% formic acid; B: acetonitrile + 0.1% formic acid; gradient (min/%B) 0/0.5 0.1/0.5 10/80 10.1/99.5 12/0.5 12.1/0.5 14.5/0.5
Settings: stereoisomer not certain

LC retention time [min]	Compound
3.69	CC(C)(COP(=O)(O)OP(=O)(O)OCC1OC(n2cnc3c(N)ncnc32)C(O)C1O)C(O)C(=O)NCCC(=O)NCCS (centres undefined) [DEPHOSPHO-COA]
8.67	CCCCCCCCCCCCCC(=O)OCC(O)CO (centres undefined) [GLYCEROL-MYRISTATE]
1.29	Nc1nc2nc[nH]c2c(=O)[nH]1 [GUANINE]
4.88	CC(C)CC(O)C(=O)O (centres undefined) [HYDROXYISOCAPROIC ACID]
0.96	CC(=O)NCCCCN [N-ACETYLPUTRESCINE]
2.89	Oc1cccc(O)c1O [PYROGALLOL]
5.05	C=C1CC23CC1(O)CCC2C12C=CC(O)C(C)(C(=O)O1)C2C3C(=O)O (centres undefined) [GIBBERELLIN A3]
2.95	OCc1ccccc1OC1OC(CO)C(O)C(O)C1O (centres undefined) [SALICIN]
1.05	CNC(=O)c1cccnc1 [N-METHYLNICOTINAMIDE]
3.27	O=c1ccn(C2CC(O)C(CO)O2)c(=O)[nH]1 (centres undefined) [DEOXYURIDINE]
1.11	O=C(O)CC(O)C(=O)O (centres undefined) [MALATE]
4.77	O=CNC(Cc1ccccc1)C(=O)O (centres undefined) [N-FORMYLPHENYLALANINE]
3.65	O=C(O)c1ccc(CO)o1 [SUMIKI'S ACID]
0.923	Cc1ncc(CO)c(C=O)c1O [PYRIDOXAL]
6.57	Oc1ccc(C2COc3cc(O)ccc3C2)cc1 (centres undefined) [EQUOL]
6.92	CCCCCCCCCC(=O)OC(CC(=O)[O-])C[N+](C)(C)C (centres undefined) [DECANOYLCARNITINE]
5.34	COc1cc2ccc(=O)oc2cc1OC [SCOPARONE]
5.97	O=C1c2c(O)cc(O)cc2OCC1c1ccc(O)cc1 (centres undefined) [DIHYDROGENISTEIN]
5.5	NC(=O)CCCCC1CCSS1 (centres undefined) [LIPOAMIDE]
0.92	O=C(O)C1(O)CC(O)C(O)C(O)C1 (centres undefined) [QUINATE]
5.08	COc1cc(CCC(=O)O)ccc1O [DIHYDROFERULIC ACID]
4.38	O=C(O)c1ccc[nH]1 [PYRROLE-2-CARBOXYLATE]
5.81	OCCc1c[nH]c2ccccc12 [INDOLE-3-ETHANOL]
4.56	O=C(O)CNC(=O)c1ccccc1O [SALICYLURIC ACID]
0.911	O=C(O)C(O)CO (centres undefined) [GLYCERATE]
2.2	c1ncc2[nH]cnc2n1 [PURINE]

Second part, the compound before the results:

Compound	LC retention time [min]
CC(=O)OC1CC2CCC1(C)C2(C)C (single isomer, unassigned; (-)) [(-)-BORNYL ACETATE]	7.47
COc1ccc(-c2coc3cc(O)cc(O)c3c2=O)cc1 [BIOCHANIN A]	7.15
O=C(O)CNC(=O)C=Cc1ccccc1 [CINNAMOYLGLYCINE]	5.02
COc1c(O)cc2oc3cc(O)c(CC=C(C)C)c(O)c3c(=O)c2c1CC=C(C)C [ALPHA-MANGOSTIN]	8.32
CC(O)CCCCCC(=O)O (centres undefined) [7-HYDROXYOCTANOIC ACID]	4.96
CC1OC(n2cnc3c(N)ncnc32)C(O)C1O (centres undefined) [5'-DEOXYADENOSINE]	3.5
CC(C)=CCOc1c2occc2cc2ccc(=O)oc12 [IMPERATORIN]	7.46
O=[N+]([O-])c1ccc(O)cc1O [2,4-DIHYDROXY-NITROPHENOL]	6.02
CC(CCC(=O)O)C(=O)O (centres undefined) [2-METHYLGLUTARATE]	4.07
CC1=C(O)C(=O)C=C2C1=CC=C1C2(C)CCC2(C)C3CC(C)(C(=O)O)CCC3(C)CCC12C (centres undefined) [CELASTROL]	8.6
CC12CCC(=O)C=C1CCC1C2C(=O)CC2(C)C1CCC2(O)C(=O)CO (centres undefined) [CORTISONE]	6.12
O=C(O)CCCCCCCCCCCNC(=O)NC1CCCCC1 [CUDA]	7.47
O=C(OC1OC2COC(=O)c3cc(O)c(O)c(O)c3-c3c(cc(O)c(O)c3O)C(=O)OC(C2O)C1O)c1cc(O)c(O)c(O)c1 (centres undefined) [CORILAGIN]	4.37
O=c1c(-c2ccc(O)cc2)coc2cc(O)ccc12 [DAIDZEIN]	5.4
COc1cc(CNC(=O)CCCCC=CC(C)C)ccc1O [CAPSAICIN]	7.3
Cn1cnc2c(ncn2C2OC(CO)C(O)C2O)c1=N (centres undefined) [1-METHYLADENOSINE]	2.05
O=C(O)CCc1ccc(O)c(O)c1 [3,4-DIHYDROXYHYDROCINNAMIC ACID]	4.42
N[C@@H](Cc1cc(I)c(O)c(I)c1)C(=O)O [3,5-DIIODO-L-TYROSINE]	4.59
C[C@H](O)[C@@H](O)[C@H](O)[C@H](O)CO [1-DEOXY-D-GLUCITOL]	0.959
Nc1ncnc2c1ncn2C1OC(COP(=O)(O)OP(=O)(O)OC2OC(CO)C(O)C(O)C2O)C(O)C1O (centres undefined) [ADP-GLUCOSE]	1.16
CC(=O)Nc1ccc(OC2OC(C(=O)O)C(O)C(O)C2O)cc1 (centres undefined) [4-ACETAMIDOPHENYLGLUCURONIDE]	1.32
O=C(O)CCCCCCCCCCCC(=O)O [1,11-UNDECANEDICARBOXYLATE]	7.11
O=C(O)CCCCCCCCCCCCCCCO [16-HYDROXY HEXADECANOIC ACID]	7.82
